US8951796B2, “Methods and compositions for expanding and stabilizing natural regulatory T cells” (University of Southern California, priority 2010, dated 2015)

Tests used:
CD4+CD25+ nTregs [1] = assay: Th17 conversion of nTregs stimulated with anti-CD3/CD28 and IL-6 (intracellular IL-17 FACS, soluble IL-17A ELISA); format: cell-based, DBA/1 mice
Description: (§1) To activate nTregs, CD25^+ or GFP^+ cells were stimulated with anti-CD3/CD28 coated beads (1:5, one bead to five cells), rmIL-2 (100 U/ml) (R&D) with DMSO or all-trans retinoic acid (atRA, 0.05 μM) for 3 days. To generate Th17 cells, these activated nTregs were stimulated with immobilized anti-CD3 (1 μg/ml), soluble anti-CD28 (1 μg/ml), anti-IL-4 (10 μg/ml) (BD biosciences), anti-IFN-γ and IL-6 (10 ng/ml) (BD Pharmingen) for 3 days.
Because atRA was dissolved in DMSO, similar volumes of DMSO was added to the cultures to exclude the possibility that atRA has a non-specific toxic effect on T cells (FIGS. 1A and B). For the data in FIGS. 1A and B, CD4^+CD25^+ cells were stimulated with immobilized anti-CD3 (1 μg/ml), soluble anti-CD28 (1 μg/ml) and IL-6 (10 ng/ml) with or without atRA (0.05 μM). 3 days later, these cells were restimulated with PMA (0.25 μg/ml) and ionomycin (0.25 μg/ml) for 5 h and brefeldin A (5 μg/ml) for 4 h, and then collected for intracellular IL-17 and IFN-γ staining. Values indicate mean±SEM of four separate experiments and representative of these experiments
(§2) In FIG. 1C, soluble IL-17A in the culture supernatants was analyzed by an ELISA. The horizontal line indicates the levels of IL-17A in the supernatant of naïve TCR-stimulated CD4^+ cells in the presence of IL-6 and TGF-β. E, the suppressive activities of nTregs in the presence of IL-6 and/or atRA were determined by the inhibition of tritiated thymidine ([^3H]-TdR) uptake.
For the experiments in FIG. 2D, CD4^+CD25^+ cells were activated as in FIG. 2A and re-stimulated with IL-6 as for the experiments in FIG. 1A described above. Intracellular IL-17 and IFN-γ expression was determined by FACS staining. Results are representative of three independent experiments. IL-17 and IFN-γ secreted into the supernatants was consistent with intracellular cytokine expression (data not shown).

CD4+CD25+ nTregs [2] = assay: FOXP3 expression of activated/expanded nTregs by FACS intracellular staining; format: cell-based, DBA/1 mice
Description: as §1
For the experiments in FIG. 1D, nTregs were activated with anti-CD3/CD28 coated beads in the presence of the atRA solvent (DMSO) or atRA (0.05 μM) with or without IL-6 (10 ng/ml) for 3 days and Foxp3 expression was determined and compared to freshly isolated CD4^+CD25^+ cells by FACS intracellular staining.
(§3) For the data in FIGS. 2A and B, CD4^+CD25^+ cells were stimulated with anti-CD3/CD28 coated beads (1:5), rmIL-2 (100 U/ml) with DMSO or atRA (0.05 μM) for 7 days and the FOXP3 expression (A) and total Foxp3^+ cell numbers (B) were determined.

T responder cells = assay: Suppressor assay: inhibition of [3H]-TdR uptake of T responder cells by nTregs; format: cell-based, DBA/1 mice
Description: To measure suppressive activities, responder T cells were stimulated with soluble anti-CD3 (0.025 μg/ml) and irradiated APC (1:1), nTregs pretreated with at-RA or without atRA were added to cultures at a ratio of 1:4 (one nTreg to four responder cells). After 72-hour cultures, triplicate wells were pulsed with 1 μCi of [^3H]-TdR for the final 16 hours. Cell proliferation was determined by [^3H]-TdR incorporation using scintillation counting.
as §2
In FIG. 2F, the suppressive activities of atRA or DMSO treated nTregs in the absence or presence of IL-6 in vitro was determined by similar methods as in FIG. 1E. P values were calculated by Student's test and indicate significant differences between atRA and control treated nTregs (P<0.05).

nTregs = assay: Expansion of nTregs with anti-CD3/28 coated beads and IL-2; format: cell-based, DBA/1 mice; conditions: one week, IL-2, with atRA
Description: as §1, §3

[3] = test system: IL-6R (CD126, CD130), STAT3, ROR-γt in nTregs; assay: IL-6 receptor expression and signaling in nTregs by flow cytometry; format: cell-based, mouse
Description: One potential mechanism by which atRA treatment stabilizes phenotype of nTregs, particularly suppressive function, may be through downregulation of the expression of IL-6R and IL-6R signaling. To investigate this potential mechanism, CD4^+CD25^+ cells were stimulated with anti-CD3/CD28 coated beads and IL-2 with or without atRA for 4 days. […] CD126 (IL-6Rα chain) expression was determined by flow cytometry. […] When atRA-treated nTregs were restimulated with IL-6, the decrease in IL-6 signaling was accompanied by a decrease of expression of ROR-γt (FIG. 4B), the crucial transcription factor required for Th17 cell differentiation. This finding is in agreement with reports that the combination of IL-2 and TGF-β has dramatic effects on both IL-6 receptor expression and signaling on nTreg cells. […] The p values indicate significant differences between DMSO treated and atRA treated nTregs (p<0.05, t test).

human nTregs = assay: Expansion and FOXP3 expression of human nTregs from peripheral blood; format: cell-based
Description: In addition to mouse nTregs, atRA also stabilized FOXP3 expression of human nTregs. nTregs were isolated from human peripheral blood and expanded with anti-CD3/28 coated beads with IL-2 in the presence or absence of atRA. […] By ten days of culture control FOXP3+ cells increased 5 fold, but atRA treated nTregs increased 20 fold.

[4] = test system: nTregs isolated from CIA mice; assay: nTregs isolated from CIA mice: suppressive activity by proliferation of T responder cells; format: cell-based, mouse; conditions: anti-CD3 1 μg/ml, IL-6 10 ng/ml, atRA 0.05 μM, 7 days
Description: For the experiments in FIG. 7A, nTregs isolated from CIA mice were stimulated with immobilized anti-CD3 (1 μg/ml) and IL-6 (10 ng/ml) with and without atRA (0.05 μM) for 7 days. Phenotypic stability was measured by FOXP3 expression and suppressive activity was determined by the proliferation of T responder cells. CMP indicates the value of T responder cells. Values in FIG. 7A indicate the mean±SEM of three independent experiments. In the experiments in FIG. 7B, nTregs from CIA mice were expanded with anti-CD3/CD28 beads (1:5) and IL-2 (100 U/ml)±atRA (0.05 μM) for 4 days. Mice with established CIA were injected intravenously with 1×10^6 atRA treated nTregs, DMSO treated nTregs or PBS (control group) (n=6/group). The mice were examined every five days after injection and the clinical scores are indicated.

IL-6 Rα mRNA, p-Stat3 = conditions: cited from earlier work
[5] = anti-CD3/CD28 beads, IL-2, atRA, 4 days

Stat-3 activation in nTregs ([3]; addition of atRA): significantly decreased
CD126 (IL-6Rα chain) expression in activated nTregs [3, 5]: markedly decreased
IL-6 Rβ (CD130) expression [3, 5]: significantly decreased
expression of ROR-γt ([3]; atRA-treated nTregs restimulated with IL-6): decrease
SMILES: CC1=C(/C=C/C(C)=C/C=C/C(C)=C/C(=O)O)C(C)(C)CCC1 [atRA, all-trans retinoic acid]
activation and proliferation status of nTregs (CD4+CD25+ nTregs [1]; addition of atRA): did not affect
intracellular IL-17 production (CD4+CD25+ nTregs [1]; atRA 0.05 μM added to cultures with IL-6 (10 ng/ml), 3 days): completely blocked
soluble IL-17 production (CD4+CD25+ nTregs [1]; atRA 0.05 μM added to cultures with IL-6 (10 ng/ml), ELISA of supernatants): completely blocked
Th17 and Th1 conversion of expanded nTregs (CD4+CD25+ nTregs [1]; nTregs expanded with atRA, restimulated with anti-CD3/28 beads with IL-6): completely resistant
FOXP3 expressed by nTregs expanded with atRA (CD4+CD25+ nTregs [2]; atRA 0.05 μM, IL-2 100 U/ml, 7 days): remained stable
down-regulation of FOXP3 expression in the presence of IL-6 (CD4+CD25+ nTregs [2]; atRA 0.05 μM, IL-6 10 ng/ml, 3 days, vs DMSO cultures): almost completely prevented
FOXP3 expression following re-stimulation with IL-6 (CD4+CD25+ nTregs [2]; nTregs previously treated with atRA): maintained FOXP3 expression
suppressive activity of nTregs in the presence of IL-6 (T responder cells; atRA added to the cultures with IL-6): maintained the suppressive activity
T cell response with atRA alone (T responder cells; in the presence of IL-6, in the absence of nTregs): did not suppress
suppressive function after restimulation with IL-6 (T responder cells; nTregs expanded in the presence of atRA, washed): completely intact
suppressive activities of nTregs expanded with atRA (T responder cells; vs nTregs expanded without atRA): even superior
expansion of nTregs (nTregs): eight-fold
total number of FOXP3+ cells (human nTregs; human nTregs): significantly increased
percentage of nTregs expressing FOXP3 (human nTregs; human nTregs proliferating in culture, some cultures with IL-1 and/or IL-6): decreased significantly less than control nTregs
increase of FOXP3+ cells (human nTregs; human nTregs, ten days of culture): 20 fold
suppressive activity of nTregs from CIA mice [4]: show suppressive activity
levels of p-Stat3 expression induced by IL-6 plus TGF-β (IL-6 Rα mRNA, p-Stat3): decreases
up-regulation of IL-6 Rα mRNA induced by TGF-β (IL-6 Rα mRNA, p-Stat3): strongly inhibits
